Paper PMC6905112, “CtcS, a MarR family regulator, regulates chlortetracycline biosynthesis” (BMC Microbiology, 2019)

How the values were obtained:
CtcS = target: T1, CtcS (Kitasatospora aureofaciens, UniProt S4S3A4); assay: competitive EMSA, release of FAM-labelled ctcS-ctcR intergenic DNA probe; format: binding; conditions: His6-CtcS 40 ng, probe 40 ng, 20 uL, pH 8.0, 0.0015-5 mM compound
T1 sequence (S4S3A4 1-165): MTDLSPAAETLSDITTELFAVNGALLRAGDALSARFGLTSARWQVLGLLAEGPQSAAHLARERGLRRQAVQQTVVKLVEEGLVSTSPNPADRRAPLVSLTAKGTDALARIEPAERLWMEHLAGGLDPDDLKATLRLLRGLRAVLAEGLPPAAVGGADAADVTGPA

[1] = target: His6-tagged recombinant CtcS (Streptomyces aureofaciens F3); assay: SEC; Superdex 200 10/300 column, AKTA FPLC P-920; ovalbumin (44 kD) and lysozyme (14 kD) as standards; purified His6-tagged CtcS

Row | stoichiometry N [1] | Compound | competitive EMSA, release of FAM-labelled ctcS-ctcR intergenic DNA probe (CtcS)
1 |  | CN(C)[C@@H]1C(=O)C(C(N)=O)=C(O)[C@@]2(O)C(=O)C3=C(O)c4c(O)ccc(Cl)c4[C@@](C)(O)[C@H]3C[C@@H]12 [chlortetracycline] | the DNA-binding affinity of CtcS would be decreased by the presence of TC and CTC
2 |  | CN(C)[C@@H]1C(=O)C(C(N)=O)=C(O)[C@@]2(O)C(=O)C3=C(O)c4c(O)cccc4[C@@](C)(O)[C@H]3C[C@@H]12 [tetracycline] | the DNA-binding affinity of CtcS would be decreased by the presence of TC and CTC
3 | 2 | His6-tagged recombinant CtcS (natural protein) | 
